From patent US12673946B2, “Pyrimidin-4(3H)-one derivatives as TRPV4 antagonists” (RaQualia Pharma Inc., priority 2020, dated 2026)

Biological target: T1, human TRPV4 (Homo sapiens, UniProt Q9HBA0)
T1 construct: host or cells: tetracycline-inducible Flp-In T-REx 293 cells
Test: Hypotonicity-induced Ca2+ influx (Fluo-4, FDSS)
Type: cell-based
Outline: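 Flp-In T-REx 293 cells with tetracycline-induced human TRPV4, loaded with Fluo-4 for 60 min at 25 °C. Compound added 5 min before hypotonic mannitol/CaCl2 solution. Ca2+ signal recorded for 4.5 min on FDSS.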

[1] = Flp-In T-REx 293 cells expressing human TRPV4, examples listed under heading 'Human IC50<50 nM'
[2] = Flp-In T-REx 293 cells stably expressing human TRPV4, compounds listed by potency bin (<10 nM Tables 96-1/96-2, <3 nM Table 97)

T1 sequence (Q9HBA0 whole entry): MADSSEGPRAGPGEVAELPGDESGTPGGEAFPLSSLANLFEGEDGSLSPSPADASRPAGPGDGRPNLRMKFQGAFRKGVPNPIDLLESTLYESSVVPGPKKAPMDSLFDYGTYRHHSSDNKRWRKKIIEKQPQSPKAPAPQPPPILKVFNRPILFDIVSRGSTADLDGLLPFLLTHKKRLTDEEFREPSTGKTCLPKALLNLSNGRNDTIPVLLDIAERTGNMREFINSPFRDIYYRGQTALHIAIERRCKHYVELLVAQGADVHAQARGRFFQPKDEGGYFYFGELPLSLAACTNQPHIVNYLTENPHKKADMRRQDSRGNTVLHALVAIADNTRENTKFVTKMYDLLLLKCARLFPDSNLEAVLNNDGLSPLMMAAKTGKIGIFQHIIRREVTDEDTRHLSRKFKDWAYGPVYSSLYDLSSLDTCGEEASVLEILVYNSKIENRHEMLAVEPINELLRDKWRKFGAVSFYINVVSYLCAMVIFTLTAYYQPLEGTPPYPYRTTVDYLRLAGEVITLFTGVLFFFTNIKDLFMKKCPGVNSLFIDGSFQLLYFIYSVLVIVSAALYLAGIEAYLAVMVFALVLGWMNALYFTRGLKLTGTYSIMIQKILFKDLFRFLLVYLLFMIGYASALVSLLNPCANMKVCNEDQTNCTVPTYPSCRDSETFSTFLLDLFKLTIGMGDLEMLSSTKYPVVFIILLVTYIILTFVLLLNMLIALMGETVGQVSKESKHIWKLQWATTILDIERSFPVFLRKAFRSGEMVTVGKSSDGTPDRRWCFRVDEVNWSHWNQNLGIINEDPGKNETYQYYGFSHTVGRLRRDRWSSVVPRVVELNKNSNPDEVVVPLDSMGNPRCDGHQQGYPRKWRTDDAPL

SMILES	IC50 [1] [nM]	IC50 [2] [nM]
CC(C)c1cncc(C2(c3nc4c(c(=O)[nH]3)CN(C(=O)[C@H](O)c3cccc(Cl)c3)CC4)CC2)c1 [25-3]	< 50	< 10
O=C([C@H](O)c1cccc(C(F)(F)F)c1)N1CCCc2nc(C3(c4cccc(Oc5ccccc5)c4)CC3)[nH]c(=O)c2C1 [17-72]	< 50	< 10
C=C(C)c1cccc(C2(c3nc4c(c(=O)[nH]3)CN(C(=O)[C@H](O)c3cccc(Cl)c3)CCC4)CC2)c1 [40-4, (R)-6-(2-(3-chlorophenyl)-2-hydroxyacetyl)-2-(1-(3-(prop-1-en-2-yl)phenyl)cyclopropyl)-3,5,6,7,8,9-hexahydro-4H-pyrimido[5,4-c]azepin-4-one]	< 50	< 3
O=C([C@H](O)c1cccc(Cl)c1)N1CCCc2nc(C3(c4cccc(-c5csc6ccccc56)c4)CC3)[nH]c(=O)c2C1 [40-11]	< 50	< 3
O=C([C@H](O)c1cccc(Br)c1)N1CCCc2nc(C3(c4cccc(-c5csc6ccccc56)c4)CC3)[nH]c(=O)c2C1 [17-124]	< 50	< 10
O=C([C@H](O)c1cccc(-c2ccc(OC(F)(F)F)cc2)c1)N1CCCc2nc(C3(c4cccc(Cl)c4)CC3)[nH]c(=O)c2C1 [50-26]	< 50	< 10
O=C([C@H](O)c1cccc(-c2csc3ccccc23)c1)N1CCCc2nc(C3(c4cc(C5CCCCC5)cs4)CC3)[nH]c(=O)c2C1 [54-8]	< 50	< 10
CC(C)c1cncc(C2(c3nc4c(c(=O)[nH]3)CN(C(=O)[C@H](O)c3cccc(-c5cccc(F)c5)c3)CCC4)CC2)c1 [55-7]	< 50	< 3
CC(C)c1csc(C2(c3nc4c(c(=O)[nH]3)CN(C(=O)[C@H](O)c3cccc(Cl)c3)CCC4)CC2)c1 [18-24]	< 50	< 3
O=C(C(O)c1cccc(-c2cccc(F)c2)c1)N1CCc2nc(C3(c4ccccc4)CC3)[nH]c(=O)c2C1 (centres unmarked) [44-47]	< 50	–
CC(C)(C)c1cc(-c2cccc([C@@H](O)C(=O)N3CCc4nc(C5(c6ccccc6)CC5)[nH]c(=O)c4C3)c2)cc(C(C)(C)C)c1 [44-103]	< 50	< 10
O=C([C@H](O)c1cccc(F)c1F)N1CCCc2nc(C3(c4cccs4)CC3)[nH]c(=O)c2C1 [18-11]	< 50	–
O=C(C(O)c1cccc(-c2cc(C(F)(F)F)ccc2Cl)c1)N1CCc2nc(C3(c4ccccc4)CC3)[nH]c(=O)c2C1 (centres unmarked) [44-13]	< 50	< 10
CC(C)(C)CC(=O)N1CCN(c2ccc(-c3cccc(C4(c5nc6c(c(=O)[nH]5)CN(C(=O)[C@H](O)c5cccc(C(F)(F)F)c5)CCC6)CC4)c3)cn2)CC1 [42-85]	< 50	< 10
O=C(Cc1cccc(-c2cccc(C(F)(F)F)c2)c1)N1CCCc2nc(C3(c4cccc(-c5csc6ccccc56)c4)CC3)[nH]c(=O)c2C1 [17-125]	< 50	< 10
CN1CCN(Cc2ccc(-c3cccc(C4(c5nc6c(c(=O)[nH]5)CN(C(=O)[C@H](O)c5cccc(C(F)(F)F)c5)CCC6)CC4)c3)cc2)CC1 [42-37]	< 50	–
O=C(C(O)c1cccc(C2CC2)c1)N1CCCc2nc(C3(c4cccs4)CC3)[nH]c(=O)c2C1 (centres unmarked) [18-13]	< 50	–
N#Cc1cc(Cl)cc(-c2cccc(CC(=O)N3CCCc4nc(C5(c6cccc(Cl)c6)CC5)[nH]c(=O)c4C3)c2)c1 [17-119]	< 50	< 3
O=C(C(O)c1cccc(-c2cccc(Cl)c2)n1)N1CCc2nc(C3(c4ccccc4)CC3)[nH]c(=O)c2C1 (centres unmarked) [48-8]	< 50	–
O=C([C@H](O)c1cccc(-c2cccc(F)c2)c1)N1CCc2nc(C3(c4ccccc4)CC3)[nH]c(=O)c2C1 [44-70]	< 50	–
CC(C(=O)N1CCCc2nc(C3(c4ccccc4)CC3)[nH]c(=O)c2C1)c1cccc(C(F)(F)F)c1 (centres unmarked) [17-46]	< 50	–
O=C(Cc1cccc(-c2ccc(C(F)(F)F)cc2)c1)N1CCCc2nc(C3(c4ccccc4)CC3)[nH]c(=O)c2C1 [17-133]	< 50	< 10
O=C(C(O)c1cccc(C2CC2)c1)N1CCCc2nc(C3(c4cccc(F)c4)CC3)[nH]c(=O)c2C1 (centres unmarked) [17-53]	< 50	–
O=C(Cc1cccc2ccccc12)N1CCCc2nc(C3(c4cccc(Cl)c4)CC3)[nH]c(=O)c2C1 [17-120]	< 50	< 10
O=C(C(O)c1cccc(-c2cc(Cl)cc(Cl)c2)c1)N1CCc2nc(C3(c4ccccc4)CC3)[nH]c(=O)c2C1 (centres unmarked) [44-10]	< 50	< 10
O=C(C(O)c1cccc(-c2cccc(OC(F)(F)F)c2)c1)N1CCCc2nc(C3(c4cccc(Cl)c4)CC3)[nH]c(=O)c2C1 (centres unmarked) [17-23]	< 50	< 10
O=C([C@H](O)c1cccc(-c2cccc(C(F)(F)F)c2)c1)N1CCCc2nc(C3(c4cccc(-c5csc6ccccc56)c4)CC3)[nH]c(=O)c2C1 [52-9]	< 50	< 10
O=C(Cc1cccc(-c2cccc(C(F)(F)F)c2)c1)N1CCCc2nc(C3(c4cccc(C5=CCCCC5)c4)CC3)[nH]c(=O)c2C1 [42-70]	< 50	< 10

SMILES	IC50 [1] [nM]	IC50 [2] [nM]
O=C([C@H](O)c1cccc(-c2ccc3c(c2)OC(F)(F)O3)c1)N1CCCc2nc(C3(c4ccccc4)CC3)[nH]c(=O)c2C1 [49-39]	< 50	< 3
CC(C)(C)c1cccc(-c2cccc(C(O)C(=O)N3CCCc4nc(C5(c6ccccc6)CC5)[nH]c(=O)c4C3)c2)c1 (centres unmarked) [49-10]	< 50	< 10
O=C([C@H](O)c1cccc(-c2ccc(F)c(Cl)c2)c1)N1CCCc2nc(C3(c4cccc(Cl)c4)CC3)[nH]c(=O)c2C1 [50-21]	< 50	< 10
O=C([C@H](O)c1cccc(C(F)(F)F)c1)N1CCCc2nc(C3(c4cccc(C5=CCN(C(=O)N6CCCCC6)CC5)c4)CC3)[nH]c(=O)c2C1 [42-73]	< 50	< 10
O=C([C@H](O)c1cccc(-c2cc3ccccc3o2)c1)N1CCc2nc(C3(c4ccccc4)CC3)[nH]c(=O)c2C1 [44-84]	< 50	< 3
CC(C)c1cccc(C2(c3nc4c(c(=O)[nH]3)CN(C(=O)C(O)c3cccc(C(F)(F)F)c3F)CC4)CC2)c1 (centres unmarked) [14-109]	< 50	< 10
O=C([C@H](O)c1cccc(-c2cccc(F)c2)c1)N1CCCc2nc(C3(c4cccs4)CC3)[nH]c(=O)c2C1 [53-5]	< 50	< 10
O=C(C(O)c1cccc(-c2cccc(C(F)(F)F)c2)c1F)N1CCc2nc(C3(c4ccccc4)CC3)[nH]c(=O)c2C1 (centres unmarked) [44-22]	< 50	–
O=C([C@H](O)c1cccc(C(F)(F)F)c1)N1CCCc2nc(C3(c4cncc(Br)c4)CC3)[nH]c(=O)c2C1 [19-6]	< 50	–
O=C([C@H](O)c1cccc(-c2csc3ccccc23)c1)N1CCCc2nc(C3(c4cccc(Cl)c4)CC3)[nH]c(=O)c2C1 [50-1]	< 50	< 10
O=C([C@H](O)c1cccc(C(F)(F)F)c1)N1CCCc2nc(C3(c4cc(-c5ccccc5)cs4)CC3)[nH]c(=O)c2C1 [41-1]	< 50	< 3
O=C([C@H](O)c1cccc(-c2ccc(F)c(Cl)c2)c1)N1CCc2nc(C3(c4cccc(Cl)c4)CC3)[nH]c(=O)c2C1 [45-1]	< 50	< 3
O=C([C@H](O)c1cccc(C(F)(F)F)c1)N1CCCc2nc(C3(c4cccc(-c5cnc(-c6ccccc6)o5)c4)CC3)[nH]c(=O)c2C1 [17-95]	< 50	< 10
O=C(Cc1ccccc1OCc1ccccc1)N1CCCc2nc(C3(c4cccc(Cl)c4)CC3)[nH]c(=O)c2C1 [17-82]	< 50	< 10
CC(C)c1cccc(C2(c3nc4c(c(=O)[nH]3)CN(C(=O)[C@H](O)c3cccc(C5=CCCC5)c3)CCC4)CC2)c1 [51-7]	< 50	< 3
O=C(C(O)c1cccc(-c2ccc(C(F)F)cc2)c1)N1CCc2nc(C3(c4ccccc4)CC3)[nH]c(=O)c2C1 (centres unmarked) [44-31]	< 50	–
O=C([C@H](O)c1cccc(C(F)(F)F)c1)N1CCCc2nc(C3(c4cccc(OC(F)(F)F)c4)CC3)[nH]c(=O)c2C1 [17-6]	< 50	< 3
CC(C)c1cncc(C2(c3nc4c(c(=O)[nH]3)CN(C(=O)C(O)c3cccc(-c5cccc(OC(F)(F)F)c5)c3)CCC4)CC2)c1 (centres unmarked) [55-2]	< 50	< 10
CC(=O)N1CCC(c2csc(C3(c4nc5c(c(=O)[nH]4)CN(C(=O)[C@H](O)c4cccc(C(F)(F)F)c4)CCC5)CC3)c2)CC1 [30-13]	< 50	–
N#Cc1ccc(-c2cccc(C3(c4nc5c(c(=O)[nH]4)CN(C(=O)[C@H](O)c4cccc(C(F)(F)F)c4)CCC5)CC3)c2)cc1C#N [42-68]	< 50	< 10
CC(C)c1csc(C2(c3nc4c(c(=O)[nH]3)CN(C(=O)C(O)c3cccc(-c5cccc(C(F)(F)F)c5)c3)CCC4)CC2)c1 (centres unmarked) [18-21]	< 50	< 10
CC(C)c1cccc(C2(c3nc4c(c(=O)[nH]3)CN(C(=O)C(O)c3cccc(C(C)(C)C)c3)CC4)CC2)c1 (centres unmarked) [14-107]	< 50	< 10
O=C([C@H](O)c1cccc(C(F)(F)F)c1)N1CCCc2nc(C3(c4cccc(C5=CCC(C(F)(F)F)CC5)c4)CC3)[nH]c(=O)c2C1 (some centres unmarked) [42-35]	< 50	< 10
O=C([C@H](O)c1cccc(C(F)(F)F)c1)N1CCCc2nc(C3(c4cccc(-c5cncc(C(F)(F)F)c5)c4)CC3)[nH]c(=O)c2C1 [42-45]	< 50	< 10
O=C([C@H](O)c1cccc(Cl)c1)N1CCCc2nc(C3(c4cccc(-c5cc6ccccc6o5)c4)CC3)[nH]c(=O)c2C1 [40-17]	< 50	< 3
O=C(C(O)c1cccc(-c2ccc(Cl)c(F)c2)c1)N1CCc2nc(C3(c4ccccc4)CC3)[nH]c(=O)c2C1 (centres unmarked) [44-15]	< 50	< 10
O=C([C@H](O)c1cccc(-c2cccc(F)c2)c1)N1CCCc2nc(C3(c4cncc(C5CCCCC5)c4)CC3)[nH]c(=O)c2C1 [55-11]	< 50	< 10
